Reference: patent publication US10736932B2, “Small molecule Ras inhibitors” (Ohio State Innovation Foundation, priority 2014, dated 2020)
Several values for one entry are separate records, joined by “and”; a condition that tells them apart may be missing. Equal entries are not always repeated. Entries after “also recorded” stand apart in the source; their conditions may differ. Where two headings read alike, the source gives them in different places. Numbered stars: 1 amine (or outer) side, 2 acyl side, 3 side chain; on linkers, the order of the positions; unused ones are H or OH. Bridge positions count the residues as written; N and C are the ends. Square brackets hold non-standard residues; d marks the D form. Peptide text beside a SMILES is read from it. * marks the point of attachment. ξ: configuration not given here. Lys(5-FITC)NH2 = NC(=O)[C@H](CCCCNC(=S)Nc1ccc2c(c1)C(=O)OC21c2ccc(O)cc2Oc2cc(O)ccc21)N*; FITC = O=C1OC2(c3ccc(O)cc3Oc3cc(O)ccc32)c2ccc(NC(=S)*)cc21; dβ3h(hPhe) = O=C(C[C@@H](CCc1ccccc1)N[*:1])[*:2]; Phe(4-F) = N[C@@H](Cc1ccc(F)cc1)C(=O)O; d2Nal = N[C@H](Cc1ccc2ccccc2c1)C(=O)O; Benzoyl(3-Cl) = O=C(c1cccc(Cl)c1)*; X1 = CC(C)(CO[*:2])C(=O)C(=O)[*:1]; ξ2Nal = NC(Cc1ccc2ccccc2c1)C(=O)O; Tle = CC(C)(C)[C@H](N)C(=O)O; X5 = O=C(c1cc(F)cc(Br)c1)*; dNle = CCCC[C@@H](N)C(=O)O; Dap = NC[C@H](N)C(=O)O; ξPip = O=C(O)C1CCCCN1

What was measured:
H1299 lung cancer cells = assay type: cell-based; conditions: for anti-proliferative activity against lung cancer cells (in words): MTT assay
Description: MTT assays (17) were performed with H1299 lung cancer cells. One hundred μL of H1299 cells (0.5×10^5 cells/mL) were seeded in each well of a 96-well culture plate and allowed to grow overnight in Advanced RPMI medium supplemented with 10% fetal bovine serum (FBS) and 1% penicillin-streptomycin. Varying concentrations of cyclic peptide (0-25 μM) were added to the each well and the cells were incubated at 37° C. with 5% CO2 for 72 hours. Ten μL of a MTT stock solution (Roche) was added into each well. The plate was incubated at 37° C. for 4 h. Then 100 μL of SDS-HCl solubilizing buffer was added into each well, and the resulting solution was mixed thoroughly. The plate was incubated at 37° C. overnight. The absorbance of the formazan product was measured at 570 nm using a Molecular Devices Spectramax M5 plate reader. Each experiment was performed in triplicates and the cells without any peptide added were treated as control.

A549 cells [1] = system: A549 cells
[2] = biological target: T1, K-Ras / Raf RBD interaction (Homo sapiens, UniProt P01116, G12V); experiment: HTRF assay, inhibition of Ras-Raf RBD interaction; assay type: binding;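 also: HTRF signal read after overnight incubation of the assay plate at 4 °C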
T1 construct: The G12V mutant K-Ras (amino acids 1-185) was recombinantly fused; GST (N, cleaved yes); made in house; host or cells: Escherichia coli BL21
T1 sequence (P01116 1-185 isoform P01116-2 G12V): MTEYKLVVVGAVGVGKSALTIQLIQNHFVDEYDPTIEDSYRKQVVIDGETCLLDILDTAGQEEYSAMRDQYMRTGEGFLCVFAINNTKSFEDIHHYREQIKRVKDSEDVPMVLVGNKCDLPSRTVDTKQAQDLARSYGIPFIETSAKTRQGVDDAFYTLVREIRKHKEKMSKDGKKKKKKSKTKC
Description: Recombinant HA-tagged K-Ras (no GST, 50 nM), GST-Raf RBD (50 nM each), a monoclonal anti-HA antibody labeled with acceptor d2 (2 μg/mL), a monoclonal anti-GST antibody labeled with donor Tb (0.25 μg/mL) (Cisbio), and increasing concentrations of cyclic peptide (0-20 μM) were mixed inPBS (total volume of 20 μL) in a 384-well plate. The plate was incubated overnight at 4° C. and the HTRF signal was measured on a Molecular Devices Spectramax M5 or a Tecan infinite M1000 Pro plate reader. The data were analyzed by Prism 6.0 from Graphpad Software, Inc. (La Jolla, Calif.) and IC50 values were obtained by fitting the data to dose-response-inhibition curve.

[3] = biological target: maltose-binding protein-XIAP BIR3 domain fusion (Homo sapiens, UniProt P98170); experiment: FA binding of FITC-9A5 to control protein MBP-XIAP BIR3
Sequence of maltose-binding protein-XIAP BIR3 domain fusion (P98170 241-356 limits assumed): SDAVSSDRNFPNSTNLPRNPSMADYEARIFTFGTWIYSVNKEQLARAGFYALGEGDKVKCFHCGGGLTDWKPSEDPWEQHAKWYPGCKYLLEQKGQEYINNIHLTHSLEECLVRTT

A549 cells [4] = experiment: Cellular uptake of FITC-labeled peptides (live-cell confocal microscopy, FACS); conditions: for cell permeability relative to earlier peptides: Gln8 replaced with L- or D-arginine
[5] = system: actin filaments in A549 cells; experiment: Actin filament staining (phalloidin-FITC) by confocal microscopy; assay type: cell-based; conditions: 10 μM, 15 min
From the text: The inhibition of Ras affects proliferation and survival of cells. […] These morphological changes are consistent with a collapse of the actin cytoskeleton. The dephosphorylation of cofilin activates the actin filament severing activity of this protein. The severing of actin filaments results in the collapse of the actin cytoskeleton. […] Without actin filaments, cells tend to round up and lose attachment to the substrate.

[6] = system: phosphorylation of Akt, Mek and Erk in H1299 cells; experiment: Western blot of Ras signaling (Akt, Mek, Erk phosphorylation) in H1299 cells; assay type: cell-based
From the text: (§1) Two well characterized Ras effector pathways are the Raf-Mek-Erk and PI3K-Akt signaling pathways (Karnoub, A. E. et al. (2008) Nat Rev. Mol. Cell Biol. 9:517). To determine whether the cyclic peptides inhibited the intracellular Ras activity, Applicants monitored the phosphorylation levels of Mek, Erk, and Akt in cells before and after treatment with the Ras inhibitors. […] In order to rule out that the observed downregulation of P-Mek, P-Erk and P-Akt is caused by inhibition of EGFR signaling, the effect of Cyclosrasin 9A5 on the phosphorylation of the EGFR was tested by performing an IP/Western Blot experiment (FIG. 3E). Active, signaling EGFR is highly autohophosphorylated.
(§2) In the MTT assay, A549 cells were also found to be more resistant to the Ras inhibitors than other cell lines.

[7] = system: phosphorylation of Akt, Mek and Erk in H1975 cells; experiment: Western blot of Ras signaling in H1975 cells; assay type: cell-based; conditions: 10 μM, 10 min
From the text: as §2
(§3) In H1975 the EGFR is also mutated. Certain mutated EGFR cannot be inhibited with Tarceva® due to the resistance conferring T790M mutation which precludes binding of the drug.

[8] = system: phosphorylation of Akt, Mek and Erk in H1650 cells; experiment: Western blot of Ras signaling in H1650 cells; assay type: cell-based; conditions: 10 μM, 10 min
From the text: as §2, §3

EGFR phosphorylation = experiment: IP/Western blot of EGFR phosphorylation; assay type: cell-based; conditions: 13 μM
From the text: as §1

[9] = system: phosphorylation of Akt, Mek and Erk in A549 cells; experiment: Western blot of Ras signaling in A549 cells; assay type: cell-based; conditions: 10 μM, 10 min
[10] = inability to cross the cell membrane; cited from earlier work
K-Ras(G12V) = biological target: T2, K-Ras(G12V) (Homo sapiens, UniProt P01116, G12V); experiment: Fluorescence anisotropy (FA) binding of FITC-labeled cyclic peptides to K-Ras; conditions: Table 2; FITC-labeled peptide; read-out: Binding affinity KD
T2 construct: The G12V mutant K-Ras (amino acids 1-185) was recombinantly fused; GST (N, cleaved yes); made in house; host or cells: Escherichia coli BL21
T2 sequence (P01116 1-185 isoform P01116-2 G12V): as the sequence (P01116 1-185 isoform P01116-2 G12V) above
Description: The 13 hits were resynthesized, labeled with fluorescein isothiocyanate (FITC), purified by HPLC, and tested for binding to K-Ras by fluorescence anisotropy (FA).
For cyclic peptides derived from single library beads (library screening), K-Ras protein (non-GST fusion, 0-20 μM) was incubated with the TMR-labeled peptide (50 or 100 nM) in 20 μL of the blocking buffer for 2.5 h at 24° C. The FA values were measured on a Molecular Devices Spectramax M5 spectrofluorimeter, with excitation and emission wavelengths at 545 and 585 nm, respectively. Equilibrium dissociation constants (KD) were determined by plotting the FA values as a function of K-Ras concentration and fitting the data to the equation
[formula] where Y is the measured anisotropy at a given K-Ras concentration x; L is the peptide concentration; Qb/Qf is the correction fact for dye-protein interaction; Amax is the maximum anisotropy at saturating K-Ras concentration; and Amin is the minimum anisotropy. FA analyses with resynthesized FITC-labeled peptides were similarly carried out, except that the excitation and emission wavelengths were at 494 and 520 nm, respectively.

[11] = inhibition of Ras-Raf interaction, read-out: HTRF IC50

SMILES: C[C@H]1NC(=O)[C@H](CCCNC(=N)N)NC(=O)[C@H](Cc2c[nH]c3ccccc23)NC(=O)[C@H](CCCNC(=N)N)NC(=O)[C@H](Cc2ccc(F)cc2)NC(=O)[C@H](CCCNC(=N)N)NC(=O)[C@@H](Cc2ccc3ccccc3c2)NC(=O)[C@H](CCCNC(=N)N)NC(=O)[C@H](CCCNC(=N)N)NC(=O)[C@H](CCC(N)=O)NC1=O [Cyclorasin 12A, (Arg-Arg-nal-Arg-Fpa-Arg-Trp-Arg-ala-Gln)] (cyclo(RR[d2Nal]R[Phe(4-F)]RWR[dA]Q); ring closure inferred)
- anti-proliferative activity against lung cancer cells (in words) (H1299 lung cancer cells): weak
- cell permeability (A549 cells [1]): cell permeable
- IC50 [2, 11]: 1000 nM

SMILES: CCCC[C@H]1NC(=O)[C@H](Cc2ccc(F)cc2)NC(=O)[C@H](CCCNC(=N)N)NC(=O)[C@@H](Cc2ccc3ccccc3c2)NC(=O)[C@H](CCCCNC(=S)Nc2ccc3c(c2)C(=O)OC32c3ccc(O)cc3Oc3cc(O)ccc32)NC(=O)[C@H](CCCNC(=N)N)NC(=O)[C@H](CCCNC(=N)N)NC(=O)[C@@H](C)NC(=O)[C@H]([C@@H](C)O)NC(=O)[C@H](Cc2c[nH]c3ccccc23)NC(=O)[C@H](CCC(N)=O)NC1=O [FITC-9A5] (cyclo(K(FITC)[d2Nal]R[Phe(4-F)][dNle]QWT[dA]RR))
- Kd [3]: ~30000 nM and 30000 nM
- mean fluorescence intensity relative to FITC-9A54 (FACS) (A549 cells [4]; A549 cells, 10 μM FITC-labeled peptide): ~5 fold
- intracellular fluorescence pattern (confocal microscopy) (A549 cells [4]; A549 cells, 10 μM FITC-labeled peptide, 15 min): intense, defuse fluorescence throughout the cytoplasm

SMILES: CCCC[C@H]1NC(=O)[C@H](Cc2ccc(F)cc2)NC(=O)[C@H](CCCNC(=N)N)NC(=O)[C@@H](Cc2ccc3ccccc3c2)NC(=O)[C@H](CCCNC(=N)N)NC(=O)[C@H](CCCNC(=N)N)NC(=O)[C@H](CCC(=O)N[C@@H](CCCCNC(=S)Nc2ccc3c(c2)C(=O)OC32c3ccc(O)cc3Oc3cc(O)ccc32)C(N)=O)NC(=O)[C@@H](C)NC(=O)[C@H]([C@@H](C)O)NC(=O)[C@H](Cc2c[nH]c3ccccc23)NC(=O)[C@@H](CO)NC1=O [Cyclorasin 9A, (Arg-Arg-nal-Arg-Fpa-nle-ser-Trp-Thr-ala-Gln)] (cyclo(RR[d2Nal]R[Phe(4-F)][dNle][dS]WT[dA]E(Lys(5-FITC)NH2)))
- anti-proliferative activity against lung cancer cells (in words) (H1299 lung cancer cells): weak
- cell permeability (A549 cells [4]; A549 cells, 10 μM FITC-labeled peptide, 1.5 h): cell permeable
- IC50 [2, 11]: 650 ± 110 nM

SMILES: CCCC[C@H]1NC(=O)[C@H](Cc2ccc(F)cc2)NC(=O)[C@H](CCCNC(=N)N)NC(=O)[C@@H](Cc2ccc3ccccc3c2)NC(=O)[C@H](CCCNC(=N)N)NC(=O)[C@H](CCCNC(=N)N)NC(=O)[C@H](CCCNC(=N)N)NC(=O)[C@@H](C)NC(=O)[C@H]([C@@H](C)O)NC(=O)[C@H](Cc2c[nH]c3ccccc23)NC(=O)[C@H](CCC(N)=O)NC1=O [Cyclorasin 9A5, (Trp-Thr-ala-Arg-Arg-Arg-nal-Arg-Fpa-nle-Gln)] (cyclo(WT[dA]RRR[d2Nal]R[Phe(4-F)][dNle]Q))
- actin filaments in treated cells [5]: absent
- basal phosphorylation of Mek and Akt ([6]; H1299 cells unstimulated with EGF, 10 μM for 10 min): inhibited
- Mek, Erk and Akt phosphorylation ([6]; H1299 cells, 10 μM, 10 min): almost completely abolished
- EGF-induced phosphorylation of Akt and Mek ([6]; H1299 cells, 13 μM, 5 min): significant reduction
- phosphorylation level of Erk ([6]; H1299 cells, 13 μM, time course): decreased, but to a lesser extent
- EGF-induced phosphorylation of Akt and Mek ([6]; H1299 cells, 13 μM, ≥10 min): completely abolished
- cell permeability relative to earlier peptides (A549 cells [4]): improved cell permeability
- Mek, Erk and Akt phosphorylation [7]: almost completely abolished; also recorded: can be inhibited
- Mek, Erk and Akt phosphorylation [8]: almost completely abolished; also recorded: can be inhibited
- EGFR phosphorylation level (EGFR phosphorylation): does no affect; also recorded: no effect
- Mek, Erk and Akt phosphorylation [9]: significant Mek and Erk phosphorylation remained
- IC50 [2]: 120 nM

SMILES: CCCC[C@H]1NC(=O)[C@H](Cc2ccc(F)cc2)NC(=O)[C@H](CCCNC(=N)N)NC(=O)[C@@H](Cc2ccc3ccccc3c2)NC(=O)[C@H](CCCNC(=N)N)NC(=O)[C@H](CCCNC(=N)N)NC(=O)[C@@H](CCCNC(=N)N)NC(=O)[C@@H](C)NC(=O)[C@H]([C@@H](C)O)NC(=O)[C@H](Cc2c[nH]c3ccccc23)NC(=O)[C@H](CCC(N)=O)NC1=O [Cyclorasin 9A6, (Trp-Thr-ala-arg-Arg-Arg-nal-Arg-Fpa-nle-Gln)] (cyclo(WT[dA][dR]RR[d2Nal]R[Phe(4-F)][dNle]Q))
- cell permeability relative to earlier peptides (A549 cells [4]): improved cell permeability
- IC50 [2]: 170 nM

SMILES: CCCC[C@H]1NC(=O)[C@H](Cc2ccc(F)cc2)NC(=O)[C@H](CCCN=C(N)N)NC(=O)C(Cc2ccc3ccccc3c2)NC(=O)[C@H](CCCN=C(N)N)NC(=O)[C@H](CCCN=C(N)N)NC(=O)[C@H](CCC(N)=O)NC(=O)C[C@@H](CCc2ccccc2)NC(=O)C2CCCCN2C(=O)C(=O)C(C)(C)COC1=O (stereo partly drawn) [Compound 12] ([ξPip][dβ3h(hPhe)]QRR[ξ2Nal]R[Phe(4-F)][dNle]; linker N-C via X1)
- cellular activity [10]: lacked cellular activity

SMILES: CCCC[C@H]1NC(=O)[C@H](CNC(=O)c2cccc(Cl)c2)NC(=O)[C@H](CCCNC(=N)N)NC(=O)[C@@H](Cc2ccc3ccccc3c2)NC(=O)[C@H](CCCNC(=N)N)NC(=O)[C@H](CCCNC(=N)N)NC(=O)[C@H](CCCNC(=N)N)NC(=O)[C@@H](C)NC(=O)[C@H](C(C)(C)C)NC(=O)[C@H](Cc2c[nH]c3ccccc23)NC(=O)[C@H](CCC(N)=O)NC1=O [Cyclorasin 9A44d, (Trp-Tle-ala-Arg-Arg-Arg-nal-Arg-Dap(3-chlorobenzoyl)-nle-Gln)] (cyclo(W[Tle][dA]RRR[d2Nal]R[Dap](Benzoyl(3-Cl))[dNle]Q))
- IC50 (H1299 lung cancer cells; H1299 cells, MTT, 72 hours, read-out: Anti-proliferative Activity IC50): 14000 ± 2000 nM
- IC50 [2]: 49 ± 7 nM

SMILES: C[C@H]1NC(=O)[C@H](C(C)(C)C)NC(=O)[C@H](CNC(=O)c2cc(F)cc(Br)c2)NC(=O)[C@H](CCC(N)=O)NC(=O)[C@@H](CCCCN)NC(=O)[C@H](Cc2ccc(F)cc2)NC(=O)[C@H](CCCNC(=N)N)NC(=O)[C@@H](Cc2ccc3ccccc3c2)NC(=O)[C@H](CCCCNC(=S)Nc2ccc3c(c2)C(=O)OC32c3ccc(O)cc3Oc3cc(O)ccc32)NC(=O)[C@H](CCCNC(=N)N)NC(=O)[C@H](CCCNC(=N)N)NC1=O [Cyclorasin 9A25, (Dap(3-bromo-5-fluorobenzoyl)-Tle-ala-Arg-Arg-Lys(FITC)-nal-Arg-Fpa-lys-Gln)] (cyclo([Dap](X5)[Tle][dA]RRK(FITC)[d2Nal]R[Phe(4-F)][dK]Q))
- Kd (K-Ras(G12V)): 470 ± 100 nM
